Experimental data taken from patent US8349868B2, “Azaquinolones that inhibit prolyl hydroxylase” (Amgen Inc., priority 2007, dated 2013).

Columns and labels:
Format in all cases: biochemical
HIF PHD2 = HIF PHD2 (Homo sapiens, UniProt Q9GZT9); assay: PHD2 inhibition assay, TR-FRET detection with VCB-Eu
Protocol: Inhibition of HIF PHD2 activity was quantified utilizing the TR-FRET technology. HIF PHD2 catalyzes a hydroxyl modification on the proline residue of the P564-HIF1α peptide substrate (Biotin-[…] (SEQ ID NO: 7)) resulting in recognition and binding of the europylated Von Hippel-Lindau protein (pVHL), elongin B and elongin C heterotrimeric (VCB-Eu) complex.
The PHD2 inhibition assay was executed by addition of freshly dissolved FeCl2 to 178.57 μM (100 μM final concentration) in PHD2 Reaction Buffer containing 30 mM MES, pH 6, 10 mM NaCl, 0.25% Brij-35, 0.01% BSA, and 1% DMSO. 28 μL of the iron solution and 2 μL of inhibitor compounds serially diluted in 100% DMSO (5% DMSO final) were added to black polypropylene 96-well microtiter plates. To that, 10 μL of 10 nM PHD2 (2 nM final) was added to all wells of the plate except for the 8 wells of column 12 (LO control), and allowed to incubate at room temperature on the shaker for one hour. Column 6 was the HI control containing PHD2 enzyme and 5% DMSO vehicle, but no inhibitor compound. To initiate the PHD2 enzymatic reaction, 10 μL of a solution containing 500 nM P564-HIF1α peptide (100 nM final), 10 mM ascorbic acid (2 mM final), and 1.25 μM 2-oxoglutarate (α-ketoglutarate; 0.25 μM final) in PHD2 Reaction Buffer was added to all wells of the plate and allowed to incubate on the shaker at room temperature for one hour.
The reaction was terminated by addition of 25 μL TR-FRET Buffer (50 mM TRIS-HCl, pH 9, 100 mM NaCl, 0.05% BSA, and 0.5% Tween-20) containing 150 mM succinate (product inhibitor; 50 mM final), 75 nM streptavidin-APC (25 nM final), and 7.5 nM VCB-Eu (2.5 nM final). The TR-FRET detection reagents were placed on a shaker for 1 hour to reach binding equilibrium before reading on the Discovery platform (PerkinElmer). Europium is excited at 315 nm and phosphoresces at 615 nm with a large Stoke's shift. APC, in turn, emits at 655 nm upon excitation at 615 nm. The TR-FRET signal is measured as the ratio of the APC 655 nm signal divided by the internal europium reference 615 nm emission signal.
The POC (percentage of control) was determined by comparing the signal from hydroxylated peptide substrate in the enzyme reaction containing inhibitor compound with that from PHD2 enzyme with DMSO vehicle alone (HI control), and no enzyme (LO control). POC was calculated using the formula: % control (POC)=(cpd−average LO)/(average HI−average LO)*100. Data (consisting of POC and inhibitor concentration in μM) was fitted to a 4-parameter equation (y=A+((B−A)/(1+((x/C)^[…]))), where A is the minimum y (POC) value, B is the maximum y (POC), C is the x (cpd concentration) at the point of inflection and D is the slope factor) using a Levenburg-Marquardt non-linear regression algorithm.

[1] = molecular target: T1, Collagen Prolyl Hydroxylase I (CPH1) (Homo sapiens, UniProt P13674); assay: Collagen prolyl hydroxylase I activity by radiometric HPLC measurement of 2-oxoglutarate conversion to succinic acid; conditions: Table 5; 50 μM 2-oxoglutarate, 100 μM PPG10, 10 μM FeSO4
T1 construct: made in house; host or cells: Trichoplusia ni insect cells (baculovirus)
T1 sequence (P13674 18-534 isoform P13674-2): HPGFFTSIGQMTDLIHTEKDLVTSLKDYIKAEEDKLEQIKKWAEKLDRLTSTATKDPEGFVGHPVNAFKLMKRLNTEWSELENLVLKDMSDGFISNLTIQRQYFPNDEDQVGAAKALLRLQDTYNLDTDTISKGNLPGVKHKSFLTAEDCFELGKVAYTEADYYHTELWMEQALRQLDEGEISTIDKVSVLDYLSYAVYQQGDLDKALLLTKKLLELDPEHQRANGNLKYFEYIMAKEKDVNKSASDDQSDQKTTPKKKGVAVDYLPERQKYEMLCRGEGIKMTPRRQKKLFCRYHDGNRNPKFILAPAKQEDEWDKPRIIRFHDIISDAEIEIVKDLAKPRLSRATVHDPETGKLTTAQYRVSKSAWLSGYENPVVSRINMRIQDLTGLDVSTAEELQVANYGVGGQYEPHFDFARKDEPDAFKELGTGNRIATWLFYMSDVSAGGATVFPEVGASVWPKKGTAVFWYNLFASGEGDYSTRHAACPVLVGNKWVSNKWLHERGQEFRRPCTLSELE
T1 sequence (P07237 18-508 partner): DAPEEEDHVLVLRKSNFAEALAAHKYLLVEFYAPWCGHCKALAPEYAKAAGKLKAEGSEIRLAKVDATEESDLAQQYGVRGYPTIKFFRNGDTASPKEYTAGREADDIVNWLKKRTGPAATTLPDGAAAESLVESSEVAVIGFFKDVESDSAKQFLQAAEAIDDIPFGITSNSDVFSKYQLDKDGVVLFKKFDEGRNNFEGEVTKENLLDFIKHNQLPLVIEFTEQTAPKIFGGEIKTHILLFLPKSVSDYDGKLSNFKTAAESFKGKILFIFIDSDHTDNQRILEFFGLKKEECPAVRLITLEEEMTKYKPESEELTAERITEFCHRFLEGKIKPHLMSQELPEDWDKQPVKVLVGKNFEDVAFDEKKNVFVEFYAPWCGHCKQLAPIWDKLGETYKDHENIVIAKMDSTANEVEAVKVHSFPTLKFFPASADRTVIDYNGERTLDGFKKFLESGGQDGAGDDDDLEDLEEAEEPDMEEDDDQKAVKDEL
Protocol: Product inhibition was not evident. Compounds were dissolved and serially diluted in 100% DMSO for potency determination. Assay Buffer consisted of Tris-HCl, pH 7.5, 0.2 mM DTT, and 0.5 mg/ml catalase. PPG10 peptide was dissolved in 0.25% acetic acid and denatured by boiling for 5 minutes then placed on ice for 5 minutes. The denatured PPG10 was then pre-mixed with 1 M ascorbate, prepared in water, and the mixture diluted with Assay Buffer to yield a working solution of 5× peptide and ascorbate. FeSO4 was freshly dissolved in water and diluted to a 2.8× concentration in Assay Buffer. Enzyme stocks were diluted to a 5× concentration in Assay Buffer. Example compounds plus FeSO4 solution were mixed, followed by addition of 5× enzyme solutions. After 10 minutes gentle mixing at room temperature, the 5× peptide solution was added. After another 10 minutes gentle mixing at room temperature, a 5× stock of 2-OG was added to initiate the reaction. Final concentrations in the assay were: 50 mM Tris-HCl, pH 7.5, 0.2 mM DTT, 0.5 mg/mL catalase, 10 μM FeSO4, 100 μM PPG10, 50 μM 5-[^14C]-2-oxoglutarate (23-37 cpm/μmol), 1 mM ascorbate, and 4% DMSO. Reactions were gently mixed at room temperature for 1 hour and terminated by addition of an equal volume of 0.02 NH2SO4.
A portion of each terminated reaction was auto-injected into a Polypore H column (PerkinElmer, Waltham, Mass.) at a rate of 0.3 mL/min with 0.01 N H2SO4 as the mobile phase. […] An Agilent 1100 HPLC System with dual quaternary pumps, column switching valve, and dual columns was used to resolve product from substrate. The Agilent 1100 Multiple Wavelength Detector indicated UV absorption of the substrate and product peaks at 210 nm and a Beta-RAM Model 2 radiation detector with In-Flow 2:1 scintillation cocktail (IN/US Systems Inc.) enabled quantitation of the 2 radioactive peaks. Laura Lite software (IN/US, Tampa, Fla.) was used to collect and analyze radiometric data. AUC measurements were converted to percent turnover of 2-OG. To standardize across studies, 2-OG conversion was normalized to percent of control (POC) values using reactions that lacked enzyme or inhibitor as low and high controls, respectively. POC data was fitted to the 4-parameter logistic model (A+((B−A)/(1+((x/C)^D)))) using ActivityBase (IDBS, Alameda Calif.) where A is the minimum POC value, B is the maximum POC value, D is the slope factor, and C is compound concentration at the inflection point (IC50, micromolar).

[2] = molecular target: T2, Collagen Prolyl Hydroxylase II (CPH2) (Homo sapiens, UniProt O15460); assay: Collagen prolyl hydroxylase II activity by radiometric HPLC measurement of 2-oxoglutarate conversion to succinic acid; conditions: Table 5; 50 μM 2-oxoglutarate, 100 μM PPG10, 10 μM FeSO4
T2 construct: made in house; host or cells: Trichoplusia ni insect cells (baculovirus)
T2 sequence (O15460 22-533 isoform O15460-2): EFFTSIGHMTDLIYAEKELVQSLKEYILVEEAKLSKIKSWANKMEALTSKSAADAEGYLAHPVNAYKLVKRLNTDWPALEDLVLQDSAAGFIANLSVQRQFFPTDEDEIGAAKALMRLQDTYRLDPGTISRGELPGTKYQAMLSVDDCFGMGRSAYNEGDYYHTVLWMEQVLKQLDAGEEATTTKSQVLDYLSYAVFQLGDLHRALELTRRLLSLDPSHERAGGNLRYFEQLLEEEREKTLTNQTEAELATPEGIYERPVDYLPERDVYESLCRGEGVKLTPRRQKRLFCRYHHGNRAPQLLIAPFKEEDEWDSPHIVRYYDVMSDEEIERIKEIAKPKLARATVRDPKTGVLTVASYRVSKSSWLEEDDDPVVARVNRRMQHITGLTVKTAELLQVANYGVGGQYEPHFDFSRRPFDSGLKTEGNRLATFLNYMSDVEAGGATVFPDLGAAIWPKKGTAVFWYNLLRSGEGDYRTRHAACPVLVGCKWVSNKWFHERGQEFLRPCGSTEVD
T2 sequence (P07237 18-508 partner): as the sequence (P07237 18-508 partner) above
Protocol: Assay conditions were established in separate studies to define dependence on dithiothreitol (DTT), ascorbate, and catalase, and to define reaction linearity and Km values for 2-oxoglutarate (2-OG; PerkinElmer LAS, Shelton, Conn. or Moravek Biochemicals, Brea, Calif.), FeSO4, and (Pro-Pro-Gly)10 peptide (PPG10; Peptides International, Louisville, Ky.). […] Product inhibition was not evident. Compounds were dissolved and serially diluted in 100% DMSO for potency determination. Assay Buffer consisted of Tris-HCl, pH 7.5, 0.2 mM DTT, and 0.5 mg/ml catalase. PPG10 peptide was dissolved in 0.25% acetic acid and denatured by boiling for 5 minutes then placed on ice for 5 minutes. The denatured PPG10 was then pre-mixed with 1 M ascorbate, prepared in water, and the mixture diluted with Assay Buffer to yield a working solution of 5× peptide and ascorbate. FeSO4 was freshly dissolved in water and diluted to a 2.8× concentration in Assay Buffer. Enzyme stocks were diluted to a 5× concentration in Assay Buffer. Example compounds plus FeSO4 solution were mixed, followed by addition of 5× enzyme solutions. After 10 minutes gentle mixing at room temperature, the 5× peptide solution was added. After another 10 minutes gentle mixing at room temperature, a 5× stock of 2-OG was added to initiate the reaction. Final concentrations in the assay were: 50 mM Tris-HCl, pH 7.5, 0.2 mM DTT, 0.5 mg/mL catalase, 10 μM FeSO4, 100 μM PPG10, 50 μM 5-[^14C]-2-oxoglutarate ([…]), 1 mM ascorbate, and 4% DMSO. Reactions were gently mixed at room temperature for 1 hour and terminated by addition of an equal volume of 0.02 NH2SO4. Unless otherwise indicated, all reagents were obtained from Sigma and were the highest grade available.
A portion of each terminated reaction was auto-injected into a Polypore H column (PerkinElmer, Waltham, Mass.) at a rate of 0.3 mL/min with 0.01 N H2SO4 as the mobile phase. The HPLC method employed exploits the difference in pKa of the 2-OG and SA carboxylates to chromatographically separate substrate from product at low pH on ion-exchange resin, as described by Cunliffe, et al (Biochem J., 240, 617-619 (1986)) and Kaule and Gunzler (Anal. Biochem., 184, 291-297 (1990)). An Agilent 1100 HPLC System with dual quaternary pumps, column switching valve, and dual columns was used to resolve product from substrate. The Agilent 1100 Multiple Wavelength Detector indicated UV absorption of the substrate and product peaks at 210 nm and a Beta-RAM Model 2 radiation detector with In-Flow 2:1 scintillation cocktail (IN/US Systems Inc.) enabled quantitation of the 2 radioactive peaks. Laura Lite software (IN/US, Tampa, Fla.) was used to collect and analyze radiometric data. AUC measurements were converted to percent turnover of 2-OG. To standardize across studies, 2-OG conversion was normalized to percent of control (POC) values using reactions that lacked enzyme or inhibitor as low and high controls, respectively. POC data was fitted to the 4-parameter logistic model (A+((B−A)/(1+((x/C)^D)))) using ActivityBase (IDBS, Alameda Calif.) where A is the minimum POC value, B is the maximum POC value, D is the slope factor, and C is compound concentration at the inflection point (IC50, micromolar).
The Baculovirus Expression Vector System (BEVS) from Invitrogen was used to express collagen prolyl 4-hydroxylase (CPH) in Trichoplusia ni insect cells. Active collagen prolyl 4-hydroxylase is an oligomeric protein that exists as an α2β2 tetramer. The alpha subunits incorporated into the tetramer can be either collagen prolyl 4-hydroxylase α1 (GenBank reference sequence NM_000917) or collagen prolyl 4-hydroxylase α2 (GenBank reference sequence NM_004199). The beta subunit, collagen prolyl 4-hydroxylase β (GenBank reference sequence NM_000918), is common to both forms of the tetramer. […]

[3] = Table 5, Example and Comparative Compounds
[4] = Table 4, TR-FRET, 2 nM PHD2, 100 nM P564-HIF1α peptide, 0.25 μM 2-oxoglutarate

HIF PHD2, sequence (Q9GZT9 whole entry): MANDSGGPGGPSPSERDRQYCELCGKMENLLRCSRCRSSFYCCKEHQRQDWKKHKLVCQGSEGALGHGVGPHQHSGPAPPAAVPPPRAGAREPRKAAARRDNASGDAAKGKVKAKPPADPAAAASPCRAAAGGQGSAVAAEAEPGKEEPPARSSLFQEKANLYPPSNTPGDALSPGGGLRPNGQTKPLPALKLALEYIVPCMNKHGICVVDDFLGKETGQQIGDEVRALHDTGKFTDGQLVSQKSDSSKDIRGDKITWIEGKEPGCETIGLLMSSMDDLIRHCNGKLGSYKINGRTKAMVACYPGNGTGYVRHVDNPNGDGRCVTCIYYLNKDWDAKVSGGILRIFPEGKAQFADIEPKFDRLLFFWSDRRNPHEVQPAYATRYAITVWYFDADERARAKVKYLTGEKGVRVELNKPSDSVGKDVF

Structure (SMILES) | IC50 (HIF PHD2; [3]) [µM] | IC50 [1] [µM] | IC50 [2] [µM] | IC50 (HIF PHD2; [4]) [µM]
Cn1c(=O)c(C(=O)NCC(=O)O)c(O)c2c(Br)cccc21 [Comparative Compound 1, reference compound] | 0.188 | 0.341 | 0.058 | –
Cn1c(=O)c(C(=O)NCC(=O)O)c(O)c2cc(Br)ccc21 [Comparative Compound 2, reference compound] | 0.351 | 0.404 | 0.115 | –
Cn1c(=O)c(C(=O)NCC(=O)O)c(O)c2ccc(Br)cc21 [Comparative Example 3, reference compound] | 0.046 | 0.351 | 0.111 | –
Cn1c(=O)c(C(=O)NCC(=O)O)c(O)c2cccc(Br)c21 [Comparative Example 4, reference compound] | 0.104 | 0.503 | 0.261 | –
Cn1c(=O)c(C(=O)CCC(=O)O)c(O)c2cccc(Br)c21 [Example 2, 4-(8-bromo-4-hydroxy-1-methyl-2-oxo-1,2-dihydroquinolin-3-yl)-4-oxobutanoic acid] | – | 22.7 | 1.87 | 0.775
Cn1c(=O)c(C(=O)CCC(=O)O)c(O)c2c(F)ccc(F)c21 [Example 9, 4-(5,8-difluoro-4-hydroxy-1-methyl-2-oxo-1,2-dihydroquinolin-3-yl)-4-oxobutanoic acid] | – | – | – | 0.779

The remaining compounds from weak to strong by IC50 (HIF PHD2; [4]), led by results:

IC50 (HIF PHD2; [3]) [µM] | IC50 [1] [µM] | IC50 [2] [µM] | IC50 (HIF PHD2; [4]) [µM] | Structure (SMILES)
– | – | – | 0.566 | Cn1c(=O)c(C(=O)CCC(=O)O)c(O)c2ccccc21 [Example 5, 4-(4-hydroxy-1-methyl-2-oxo-1,2-dihydroquinolin-3-yl)-4-oxobutanoic acid]
– | – | 5.28 | 0.343 | Cn1c(=O)c(C(=O)CCC(=O)O)c(O)c2c(Br)cccc21 [Example 8, 4-(5-bromo-4-hydroxy-1-methyl-2-oxo-1,2-dihydroquinolin-3-yl)-4-oxobutanoic acid]
– | – | 3.82 | 0.309 | Cn1c(=O)c(C(=O)CCC(=O)O)c(O)c2cc(Br)ccc21 [Example 7, 4-(6-bromo-4-hydroxy-1-methyl-2-oxo-1,2-dihydroquinolin-3-yl)-4-oxobutanoic acid]
– | – | – | 0.285 | Cn1c(=O)c(C(=O)CCC(=O)O)c(O)c2ccc(F)c(F)c21 [Example 10, 4-(7,8-difluoro-4-hydroxy-1-methyl-2-oxo-1,2-dihydroquinolin-3-yl)-4-oxobutanoic acid]
– | – | – | 0.208 | Cn1c(=O)c(C(=O)CCC(=O)O)c(O)c2cc(I)cnc21 [Example 1, 4-(4-hydroxy-6-iodo-1-methyl-2-oxo-1,2-dihydro-1,8-naphthyridin-3-yl)-4-oxobutanoic acid]
– | – | – | 0.135 | O=C(O)CCC(=O)c1c(O)c2ccc(F)c(F)c2n(Cc2ccccc2)c1=O [Example 6, 4-(1-benzyl-7,8-difluoro-4-hydroxy-2-oxo-1,2-dihydroquinolin-3-yl)-4-oxobutanoic acid]
0.0649 | – | 13.4 | 0.0649 | Cn1c(=O)c(C(=O)CCC(=O)O)c(O)c2ccc(Br)cc21 [Example 4, 4-(7-bromo-4-hydroxy-1-methyl-2-oxo-1,2-dihydroquinolin-3-yl)-4-oxobutanoic acid]
– | – | – | 0.0645 | Cn1c(=O)c(C(=O)CCC(=O)O)c(O)c2ccc(C(F)(F)F)nc21 [Example 3, 4-(4-hydroxy-1-methyl-2-oxo-7-(trifluoromethyl)-1,2-dihydro-1,8-naphthyridin-3-yl)-4-oxobutanoic acid]
– | – | – | 0.0114 | Cn1c(=O)c(C(=O)CCC(=O)O)c(O)c2ccc(-c3ccc(C(=O)O)cc3)cc21 [Example 11, 4-(3-(3-carboxypropanoyl)-4-hydroxy-1-methyl-2-oxo-1,2-dihydroquinolin-7-yl)benzoic acid]
